According to article PMC5429769, “Rational development of Stafib-2: a selective, nanomolar inhibitor of the transcription factor STAT5b” (Scientific Reports, 2017):
Residue numbers refer to the chain shown, from its start.

Tests used:
[1] = target: T1, STAT6 (Homo sapiens, UniProt P42226); assay: Fluorescence polarization assay, STAT6; assay type: binding
T1 sequence (P42226 1-847): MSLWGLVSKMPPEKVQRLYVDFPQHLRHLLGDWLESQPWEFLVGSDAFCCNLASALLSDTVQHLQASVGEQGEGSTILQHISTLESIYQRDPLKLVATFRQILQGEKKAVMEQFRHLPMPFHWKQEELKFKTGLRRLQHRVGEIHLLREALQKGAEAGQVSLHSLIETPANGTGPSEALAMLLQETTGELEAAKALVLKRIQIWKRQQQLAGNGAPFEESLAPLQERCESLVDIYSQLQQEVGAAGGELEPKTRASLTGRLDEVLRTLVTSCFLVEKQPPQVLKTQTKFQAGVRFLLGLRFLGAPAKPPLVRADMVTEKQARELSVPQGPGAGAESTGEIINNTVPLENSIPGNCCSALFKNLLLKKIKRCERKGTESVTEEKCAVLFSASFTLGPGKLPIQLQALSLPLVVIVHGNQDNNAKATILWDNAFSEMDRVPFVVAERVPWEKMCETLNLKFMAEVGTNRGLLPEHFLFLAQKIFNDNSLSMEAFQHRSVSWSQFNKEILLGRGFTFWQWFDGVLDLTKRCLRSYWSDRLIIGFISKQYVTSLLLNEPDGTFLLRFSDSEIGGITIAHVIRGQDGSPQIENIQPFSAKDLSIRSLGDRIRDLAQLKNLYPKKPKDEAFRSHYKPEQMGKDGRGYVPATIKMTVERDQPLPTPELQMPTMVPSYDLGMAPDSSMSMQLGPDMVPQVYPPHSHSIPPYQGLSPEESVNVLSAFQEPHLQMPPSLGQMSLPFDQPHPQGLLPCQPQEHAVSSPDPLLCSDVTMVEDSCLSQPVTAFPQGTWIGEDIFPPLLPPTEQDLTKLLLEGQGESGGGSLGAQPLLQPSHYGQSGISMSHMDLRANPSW

[2] = target: T2, Lck SH2 (Homo sapiens, UniProt P06239); assay: Fluorescence polarization assay, Lck SH2; assay type: binding; settings: read-out: Lck SH2 maximum inhibition
T2 construct: the more distantly related SH2 domain of the tyrosine kinase Lck
T2 sequence (P06239 127-224 limits assumed): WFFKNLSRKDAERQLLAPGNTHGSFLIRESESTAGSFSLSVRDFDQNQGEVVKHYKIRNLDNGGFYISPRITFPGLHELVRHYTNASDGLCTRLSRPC

[3] = target: T3, STAT5b Lys600Ala (Homo sapiens, UniProt P51692, K600A); assay: Isothermal titration calorimetry, STAT5b Lys600Ala; assay type: binding; settings: ITC, 25 °C
T3 sequence (P51692 1-787 K600A): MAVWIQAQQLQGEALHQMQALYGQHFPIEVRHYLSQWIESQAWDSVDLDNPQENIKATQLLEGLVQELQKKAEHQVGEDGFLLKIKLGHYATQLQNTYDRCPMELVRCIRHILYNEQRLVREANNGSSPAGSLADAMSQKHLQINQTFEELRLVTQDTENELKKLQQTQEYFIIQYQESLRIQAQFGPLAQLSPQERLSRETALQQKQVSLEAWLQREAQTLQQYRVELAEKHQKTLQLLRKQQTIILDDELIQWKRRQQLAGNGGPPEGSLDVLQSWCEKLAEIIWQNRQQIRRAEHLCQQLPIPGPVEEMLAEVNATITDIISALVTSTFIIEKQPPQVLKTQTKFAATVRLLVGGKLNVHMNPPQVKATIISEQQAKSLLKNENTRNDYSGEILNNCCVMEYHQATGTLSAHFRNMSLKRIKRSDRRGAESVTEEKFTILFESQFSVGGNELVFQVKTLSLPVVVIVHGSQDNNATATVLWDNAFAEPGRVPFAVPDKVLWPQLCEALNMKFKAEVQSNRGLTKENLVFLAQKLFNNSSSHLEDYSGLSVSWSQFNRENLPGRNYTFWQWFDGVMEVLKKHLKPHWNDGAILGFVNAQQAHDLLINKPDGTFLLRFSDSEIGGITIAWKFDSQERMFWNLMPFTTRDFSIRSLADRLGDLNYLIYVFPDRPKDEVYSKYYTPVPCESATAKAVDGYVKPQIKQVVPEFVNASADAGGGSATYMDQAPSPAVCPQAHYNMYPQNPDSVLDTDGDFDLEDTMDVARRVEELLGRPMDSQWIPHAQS

[4] = target: T4, STAT5b-GFP (Homo sapiens, UniProt P51692); assay: STAT5b Tyr699 phosphorylation in STAT5b-GFP-transfected K562 cells (Western blot); assay type: cell-based
T4 sequence (P51692 1-787): T3 sequence (P51692 1-787 K600A) with A600K

SMILES: O=C(COc1ccc(C(=O)Nc2ccc(Oc3ccccc3)cc2)cc1)NCc1ccc(OP(=O)(O)O)c(OP(=O)(O)O)c1 [compound 4, 4-((2-(4-((4-phenoxyphenyl)carbamoyl)phenoxy)acetamido)methyl)-1,2-phenylene bis(dihydrogen phosphate)]
- Ki ([1]; converted from IC50 using the published equation): 11.7 ± 1.2 µM
- IC50 ([1]; fluorescence polarization): 23.7 ± 2.5 µM
- inhibition at 40 µM [2]: 25 ± 2%
- Kd [3]: 23 ± 10 µM
- inhibition of STAT5b phosphorylation [4]: did not show significant activity
